The values below come from paper PMC12527977, “Discovery of a novel tetrapeptide as glucose homeostasis modulator with bifunctionalities of targeting DPP‐IV and microbiota” (iMeta, 2025).

Like-named read-outs stand apart in the source and are kept apart here. Where a SMILES comes first, the peptide text is derived from it. Where no end group is shown, it is not given here.

Data set [1] can be described thus: Simulated digestive stability of peptides (pepsase then trypsase). The class given is in vitro ADME, porcine. Conditions: pig, relative to basal 100, sheet S2H; for remaining at 4 h, 5 mg/mL: pH 7, simulated digestion, after pepsase then trypsase, read-out: Peptide remaining, Trypsase; for remaining at 2 h, 5 mg/mL: porcine pepsase (simulated gastric digestion), pH 3, simulated digestion, after porcine pepsase, read-out: Peptide remaining, Pepsase. How it is done: (§1) The in vitro digestibility of the peptides was determined according to the method described by Ohanenye et al. with some modifications. Briefly, 5.0 mg/mL peptides were mixed with 5000 U/mL porcine pepsase (pH 3.0). The mixture was incubated with continuous shaking in a water bath at 37 ℃ for 2 h. Then, the mixture was adjusted to pH 7.0, and a final concentration of 100 U/mL trypsase was added, followed by continuous shaking at 37 ℃ for another 2 h. After digestion, the enzyme was inactivated, and the mixture was incubated in a water bath (100 ℃) for 20 min. Subsequently, the mixture was centrifuged at 6000 rpm for 20 min, after which the supernatants were collected for further analysis. The concentrations of peptides in the digestions and TPH were determined via AB SCIEX QTrap 6600+ (AB Sciex, Framingham, Massachusetts).

For data set [2], the system named is porcine pepsase and trypsase. The data set is described as above. The class given is in vitro ADME. The note with it: in words; 5.0 mg/mL peptide, pepsase 5000 U/mL pH 3.0 37 °C 2 h, then trypsase 100 U/mL pH 7.0 37 °C 2 h, LC-MS. How it is done: as §1
Data set [3] concerns the target T1, DPP-IV (Homo sapiens, UniProt P27487). Kind of data set: DPP-IV inhibitory activity of peptides (DPP-IV-Glo Protease Assay Kit). The class given is biochemical. Set-up: purchased QiZheng Biotech (Shanghai, China) IBDPP0901. The note with it: for DPP-IV inhibitory activity: DPP-IV-Glo Protease Assay Kit, control = 0, in % (unit assumed).
Target sequence in this assay (P27487 whole entry): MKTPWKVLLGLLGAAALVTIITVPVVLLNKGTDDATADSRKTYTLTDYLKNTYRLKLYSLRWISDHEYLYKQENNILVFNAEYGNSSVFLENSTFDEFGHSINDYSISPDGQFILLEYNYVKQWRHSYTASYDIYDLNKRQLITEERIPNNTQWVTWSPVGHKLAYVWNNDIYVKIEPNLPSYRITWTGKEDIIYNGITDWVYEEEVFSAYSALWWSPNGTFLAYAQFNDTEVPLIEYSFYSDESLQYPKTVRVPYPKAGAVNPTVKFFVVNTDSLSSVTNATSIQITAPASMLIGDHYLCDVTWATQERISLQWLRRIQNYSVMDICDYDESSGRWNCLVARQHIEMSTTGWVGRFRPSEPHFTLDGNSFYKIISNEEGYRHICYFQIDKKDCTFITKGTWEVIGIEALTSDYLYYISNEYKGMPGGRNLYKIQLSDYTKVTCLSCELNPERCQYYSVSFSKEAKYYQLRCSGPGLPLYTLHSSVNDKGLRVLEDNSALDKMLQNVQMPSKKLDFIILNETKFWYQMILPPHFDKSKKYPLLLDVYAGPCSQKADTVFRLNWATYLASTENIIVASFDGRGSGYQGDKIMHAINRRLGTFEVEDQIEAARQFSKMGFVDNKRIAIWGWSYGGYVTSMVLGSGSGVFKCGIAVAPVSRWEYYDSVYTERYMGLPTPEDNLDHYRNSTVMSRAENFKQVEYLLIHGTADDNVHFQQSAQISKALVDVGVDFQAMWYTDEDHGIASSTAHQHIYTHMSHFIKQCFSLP
In data set [4] the target is T1, DPP-IV. Kind of data set: Surface plasmon resonance (Biacore 8K, CM5 chip, 25 °C). The class given is binding. Details: purchased QiZheng Biotech (Shanghai, China) IBDPP0901. (Surface plasmon resonance follows binding to a sensor surface in real time, without labels.)
The next data set concerns the target dipeptidyl peptidase IV (UniProt P27487).
[5] abbreviates: SPR, Table S3, read-out: KD values.

dipeptidyl peptidase IV, sequence (P27487 41-765): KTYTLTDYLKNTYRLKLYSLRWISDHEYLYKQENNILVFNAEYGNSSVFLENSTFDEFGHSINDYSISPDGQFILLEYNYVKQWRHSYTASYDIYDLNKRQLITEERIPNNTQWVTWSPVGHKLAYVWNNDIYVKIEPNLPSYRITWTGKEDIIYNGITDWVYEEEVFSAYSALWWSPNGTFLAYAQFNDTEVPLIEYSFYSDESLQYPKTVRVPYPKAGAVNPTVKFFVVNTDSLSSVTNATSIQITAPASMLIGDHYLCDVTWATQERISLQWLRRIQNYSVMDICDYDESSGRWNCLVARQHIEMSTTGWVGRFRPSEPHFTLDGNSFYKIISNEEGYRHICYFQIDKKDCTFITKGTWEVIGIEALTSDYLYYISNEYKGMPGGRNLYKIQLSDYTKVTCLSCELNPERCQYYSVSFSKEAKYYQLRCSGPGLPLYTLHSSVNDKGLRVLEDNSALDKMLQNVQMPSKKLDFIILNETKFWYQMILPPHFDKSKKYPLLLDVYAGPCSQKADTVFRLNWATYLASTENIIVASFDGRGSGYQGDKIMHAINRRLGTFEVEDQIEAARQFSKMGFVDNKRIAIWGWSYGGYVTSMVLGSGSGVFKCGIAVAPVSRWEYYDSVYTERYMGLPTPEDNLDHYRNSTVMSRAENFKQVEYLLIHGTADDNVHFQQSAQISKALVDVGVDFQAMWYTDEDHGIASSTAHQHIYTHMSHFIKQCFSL

`NC(=O)CC[C@H](NC(=O)[C@@H]1CCCN1C(=O)[C@@H](N)Cc1ccccc1)C(=O)N[C@@H](CO)C(=O)O` [FPQS] (H-FPQS-OH): the amount remaining at 4 h, 5 mg/mL is 85.1% in data set [1] (replicate 1), 83.4% in data set [1] (replicate 2) and 87.9% in data set [1] (replicate 3). Moreover, the fraction remaining at 2 h, 5 mg/mL was 94.6% in data set [1] (replicate 1), 92.4% in data set [1] (replicate 2) and 92.7% in data set [1] (replicate 3). Besides, in data set [2], the “Resistance to simulated gastric pepsase and trypsase digestion” value is “readily resistant”. Also, the DPP-IV inhibitory activity stood at 35.1258 on DPP-IV [3] (replicate 1, sheet S2F); 29.3845 on DPP-IV [3] (replicate 2, sheet S2F); 34.8747 at DPP-IV [3] (replicate 3, sheet S2F). The IC50 on DPP-IV [3] (Table S3, read-out: IC50) turned out to be 350 µM; at DPP-IV [3] (source data of heatmap Fig 1J, read-out: IC50), 80 µM.
For the molecule `CC(C)C[C@H](NC(=O)[C@@H](N)CC(C)C)C(=O)N[C@@H](Cc1ccc(O)cc1)C(=O)O` [LLY] (H-Leu-Leu-Tyr-OH), the Kd on DPP-IV [4] (setting [5]) was 5.23 µM. In addition, the amount remaining at 4 h, 5 mg/mL in data set [1] (replicate 1) is 0.95%; in data set [1] (replicate 2), 0.78%; in data set [1] (replicate 3), 0.81%. The share remaining at 2 h, 5 mg/mL in data set [1] (replicate 1) is 1.24%; in data set [1] (replicate 2), 0.79%; in data set [1] (replicate 3), 0.98%. The DPP-IV inhibitory activity at DPP-IV [3] (replicate 1, sheet S2F) was 32.8224; on DPP-IV [3] (replicate 2, sheet S2F), 33.3933; at DPP-IV [3] (replicate 3, sheet S2F), 36.9146. Moreover, on DPP-IV [3] (Table S3, read-out: IC50), the IC50 was 830 µM.
On to `CC(C)[C@H](N)C(=O)N[C@@H](C)C(=O)N[C@@H](CC(=O)O)C(=O)N[C@@H](Cc1c[nH]c2ccccc12)C(=O)O` [VADW] (H-VADW-OH), for which, at DPP-IV [4] (setting [5]), the Kd was 14 µM. For the same molecule, the results for the fraction remaining at 4 h, 5 mg/mL in data set [1] (replicate 1), in data set [1] (replicate 2) and in data set [1] (replicate 3) were 9.2%, 9.52% and 7.78%, respectively. In addition, the amount remaining at 2 h, 5 mg/mL in data set [1] (replicate 1) is 12.2%; in data set [1] (replicate 2) it was 14.3%; in data set [1] (replicate 3), 10.4%. Moreover, the DPP-IV inhibitory activity was determined as 63.2506 on DPP-IV [3] (replicate 1, sheet S2F); 57.5085 on DPP-IV [3] (replicate 2, sheet S2F); 57.0946 at DPP-IV [3] (replicate 3, sheet S2F). The IC50 at DPP-IV [3] (Table S3, read-out: IC50) came to 350 µM.
`CC(C)C[C@H](NC(=O)[C@H](CC(N)=O)NC(=O)[C@@H](N)Cc1ccc(O)cc1)C(=O)N1CCC[C@H]1C(=O)O` [YNLP] (H-YNLP-OH): at DPP-IV [4] (setting [5]), the dissociation constant (Kd) stood at 100 µM. The amount remaining at 4 h, 5 mg/mL in data set [1] (replicate 1) was 98.7%; in data set [1] (replicate 2), 99%; in data set [1] (replicate 3), 100%. Further, the share remaining at 2 h, 5 mg/mL in data set [1] (replicate 1) is 97.5%; in data set [1] (replicate 2), 99.8%; in data set [1] (replicate 3) it was 100%. Also, in data set [2], the “Resistance to simulated gastric pepsase and trypsase digestion” value is given as “readily resistant”. Further, the DPP-IV inhibitory activity at DPP-IV [3] (replicate 1, sheet S2F) is 22.415; at DPP-IV [3] (replicate 2, sheet S2F), 17.2115; on DPP-IV [3] (replicate 3, sheet S2F), 22.0674. Moreover, at DPP-IV [3] (Table S3, read-out: IC50), the IC50 was 510 µM.
With `CSCC[C@H](NC(=O)[C@H](CC(C)C)NC(=O)[C@H](CCC(N)=O)NC(=O)[C@@H](N)Cc1ccc(O)cc1)C(=O)O` [YQLM] (H-YQLM-OH), the Kd on DPP-IV [4] (setting [5]) is 25.4 µM. Besides, the values for the fraction remaining at 4 h, 5 mg/mL in data set [1] (replicate 1), in data set [1] (replicate 2) and in data set [1] (replicate 3) were 14.3%, 12.7% and 9.83%, respectively. Besides, the fraction remaining at 2 h, 5 mg/mL is 14.7% in data set [1] (replicate 2) and 15% in data set [1] (replicate 3). Also, the DPP-IV inhibitory activity is reported as 41.3327 on DPP-IV [3] (replicate 1, sheet S2F); 38.0136 on DPP-IV [3] (replicate 2, sheet S2F); 34.538 on DPP-IV [3] (replicate 3, sheet S2F). Moreover, the IC50 at DPP-IV [3] (Table S3, read-out: IC50) turned out to be 650 µM.
For `C[C@H](NC(=O)[C@H](Cc1ccc(O)cc1)NC(=O)[C@H](CO)NC(=O)[C@@H](N)Cc1ccc(O)cc1)C(=O)O` [YSYA] (H-YSYA-OH), on DPP-IV [4] (setting [5]), the Kd was determined as 5.54 µM. Also, the amount remaining at 4 h, 5 mg/mL in data set [1] (replicate 1) is 3.01%; in data set [1] (replicate 2), 3.24%; in data set [1] (replicate 3), 4.18%. Further, the fraction remaining at 2 h, 5 mg/mL in data set [1] (replicate 1) is 17.8%; in data set [1] (replicate 2) it was 17.7%; in data set [1] (replicate 3), 15.2%. For the same molecule, the DPP-IV inhibitory activity came out at 27.0679 on DPP-IV [3] (replicate 1, sheet S2F); 29.9267 on DPP-IV [3] (replicate 2, sheet S2F); 30.8304 on DPP-IV [3] (replicate 3, sheet S2F). For the same molecule, on DPP-IV [3] (Table S3, read-out: IC50), the IC50 turned out to be 410 µM.
For `C[C@@H](O)[C@H](NC(=O)[C@@H](N)Cc1ccc(O)cc1)C(=O)NCC(=O)N[C@@H](CC(=O)O)C(=O)O` [YTGD] (H-YTGD-OH), on DPP-IV [4] (setting [5]), the Kd worked out at 100 µM. Moreover, the DPP-IV inhibitory activity on DPP-IV [3] (replicate 1, sheet S2F) amounted to 20.1405; at DPP-IV [3] (replicate 2, sheet S2F) it was 15.5931; on DPP-IV [3] (replicate 3, sheet S2F) it was 21.6532. In addition, the IC50 on DPP-IV [3] (Table S3, read-out: IC50) is 320 µM.
In the case of PSSQQ (peptide), the IC50 of inhibition of DPP-IV activity in vitro with dipeptidyl peptidase IV is 730 µM.
In the case of PSSQQ [PSSQQ], at DPP-IV [4], the Kd stood at 37000 µM. On DPP-IV [3], this molecule displayed an IC50 of 730 µM. Also, the DPP-IV inhibitory activity at DPP-IV [3] (replicate 1, […]) is listed as 8.036; on DPP-IV [3] (replicate 2, […]), 8.558; at DPP-IV [3] (replicate 3, […]), 22.2643.
WLE (peptide) returned an IC50 of inhibition of DPP-IV activity in vitro in the data set with dipeptidyl peptidase IV of 2400 µM.
The same measure, in the same setting: as for YNL (peptide), the figure is 140 µM; as for YQL (peptide), 280 µM.
For the molecule VADW, the IC50 of inhibition of DPP-IV activity in vitro with dipeptidyl peptidase IV stood at 350 µM.
For YQLM, in the data set with dipeptidyl peptidase IV, the IC50 of inhibition of DPP-IV activity in vitro came out at 650 µM.
The same measure, in the same setting: the result for PQNHA reads 24600 µM; that for YNLP, 510 µM; that for FDGEL, 45100 µM.
The molecule YTGD returned an IC50 of inhibition of DPP-IV activity in vitro in the data set with dipeptidyl peptidase IV of 320 µM.
The molecule WIAVK had an IC50 of inhibition of DPP-IV activity in vitro with dipeptidyl peptidase IV of 600 µM.
Same read-out and setting: as for WNVN, the figure is 150 µM; as for FPQS, 350 µM; as for WDSY, 630 µM.
Same read-out and setting: as for YTPHW, the figure is 7110 µM; as for FNVDSE, 84000 µM.
Regarding YSYA, in the data set with dipeptidyl peptidase IV, the IC50 of inhibition of DPP-IV activity in vitro came out at 410 µM.
FNPRG had an IC50 of inhibition of DPP-IV activity in vitro in the data set with dipeptidyl peptidase IV of 40500 µM.
In the data set with dipeptidyl peptidase IV, VAMP showed an IC50 of inhibition of DPP-IV activity in vitro of 1 µM.
Same read-out and setting: as for LNAP, the figure is 590 µM; as for VFTPQ, 18500 µM.

For orientation: amount remaining means what is left of the initial amount, in per cent. For orientation: IC50 means the point on the concentration scale where inhibition reaches its midpoint. The term Kd denotes the free concentration of one partner at which half of the binding sites on the other are occupied at equilibrium, for simple one-to-one binding.
